Patent US20190321420A1, “METHOD AND COMPOSITION FOR PREVENTING, TREATING OR RELIEVING BONE DISEASES” (GRAPE KING BIO Ltd., priority 2018, published 2019)
Marks after values point to notes of the source that are not given here.

Experiments:
[1] = system: ovariectomized ICR female mice; assay: Micro-CT bone tissue analysis of the right distal femur in ovariectomized mice (osteoporosis model); format: in vivo; settings: 32nd day after ovariectomy, GKM3/GKS6 205 mg/kg oral gavage once/day for 28 days, Alen 2.5 mg/kg 3 times a week for 28 days, n = 6
[2] = system: ovariectomized ICR female mice; assay: Bone mineral density (BMD) of the femur in ovariectomized mice; format: in vivo; settings: right femur, 32nd day after ovariectomy; GKM3/GKS6 205 mg/kg oral gavage once/day for 28 days; Alen 2.5 mg/kg 3 times a week for 28 days; n = 6
Protocol: In this embodiment, GKM3 and GKS6 powders were each prepared in a 0.5% (w/v) carboxymethylcellulose (CMC) solution as a suspension with a concentration of 205 mg/mL The vehicle group used 0.5% (w/v) CMC solution.
Because bone metabolism is closely related to estrogen, mice with bilateral ovariectomy were used as a model for studying osteoporosis in postmenopausal animals. After the recovery period of 1 to 2 weeks after the bilateral ovariectomy, mice were randomly assigned to different treatment groups.
In this embodiment, 8-week-old ICR female mice were purchased from BioLASCO Taiwan Co., Ltd., and ovariectomy (OVX) was performed when they were 9 weeks old. […]
Computerized tomography images of the right distal femur of ICR mice were obtained by a micro-computed tomography (micro-CT) scanner (SkyScan 1076, Kontizh, Belgium) with a resolution of 18 μm and were analyzed by a software to obtain the trabecular bone volume density (i.e., bone volume/tissue volume, BV/TV), the trabecular thickness (Tb.Th), the trabecular number (Tb.N), and the trabecular spacing (Tb.Sp). The analyzed position was selected to include the area of 100 pieces under the growth plate but not the cortical bone. […]
The bone density (mass/volume) was detected by the micro-CT. […]
The obtained data in the experiments were analyzed with one-way analysis of variance (one-way ANOVA) and the Duncan's multiple range test. […]

NCCCC(O)(P(=O)(O)O)P(=O)(O)O [Alen, alendronate]
Femur Tb.N [1]: 3.3 ± 0.1 No./mm | Femur Tb.Sp [1]: 232.9 ± 25.9 μm | Femur Tb.Th [1]: 109.9 ± 3.9 μm | Femur BMD [2]: 0.60 ± 0.02* g/cm^3
